For orientation: IC50 means the concentration at which inhibition is half-maximal. A higher IC50 goes with weaker potency in that assay.

The test system of this experiment is WSU-DLCL2 cell line. Description: Cell proliferation analysis (Cell Titer Glo, 6 days). The format is cell-based. Particulars: Homo sapiens, WSUDLCL2, 144 h; WSU-DLCL2 cells, 6 days incubation, cell viability by ATP (Cell Titer Glo). An excerpt:
Cell Proliferation Analysis
WSU-DLCL2 suspension cells were purchased from DSMZ (German Collection of Microorganisms and Cell Cultures, Braunschweig, Germany). RPMI/Glutamax Medium, Penicillin-Streptomycin, Heat Inactivated Fetal Bovine Serum were purchased from Life Technologies, Grand Island, N.Y., USA. V-bottom polypropylene 384-well plates were purchased from Greiner Bio-One, Monroe, N.C., USA. Cell culture 384-well white opaque plates were purchased from Perkin Elmer, Waltham, Mass., USA. Cell-Titer Glo® was purchased from Promega Corporation, Madison, Wis., USA. SpectraMax M5 plate reader was purchased from Molecular Devices LLC, Sunnyvale, Calif., USA.
WSU-DLCL2 suspension cells were maintained in growth medium (RPMI 1640 supplemented with 10% v/v heat inactivated fetal bovine serum and cultured at 37° C. under 5% CO2. Under assay conditions, cells were incubated in Assay Medium (RPMI 1640 supplemented with 20% v/v heat inactivated fetal bovine serum and 100 units/mL penicillin-streptomycin) at 37° C. under 5% CO2.
For the assessment of the effect of compounds on the proliferation of the WSU-DLCL2 cell line, exponentially growing cells were plated in 384-well white opaque plates at a density of 1250 cell/ml in a final volume of 50 μl of assay medium. A compound source plate was prepared by performing triplicate nine-point 3-fold serial dilutions in DMSO, beginning at 10 mM (final top concentration of compound in the assay was 20 μM and the DMSO was 0.2%). A 100 nL aliquot from the compound stock plate was added to its respective well in the cell plate. The 100% inhibition control consisted of cells treated with 200 nM final concentration of staurosporine and the 0% inhibition control consisted of DMSO treated cells. After addition of compounds, assay plates were incubated for 6 days at 37° C., 5% CO2, relative humidity >90% for 6 days. Cell viability was measured by quantization of ATP present in the cell cultures, adding 35 μl of Cell Titer Glo® reagent to the cell plates. Luminescence was read in the SpectraMax M5. The concentration inhibiting cell viability by 50% was determined using a 4-parametric fit of the normalized dose response curves.
Compound `CCN(c1cc(Cl)cc(C(=O)NCc2nccs2)c1C)C1CCOCC1` [Cpd 24] returned an IC50 of over 50 µM.

The compound `CCN(c1cc(Cl)cc(C(=O)NCc2cncn2C)c1C)C1CCOCC1` [Cpd 22] showed an IC50 of over 50 µM.

Compound `CCN(c1cc(Cl)cc(C(=O)NCc2c(C)ccn3ccnc23)c1C)[C@H]1CC[C@H](N(C)C)CC1` [Cpd 2] registered an IC50 of over 25 µM.

`CCN(c1cc(Cl)cc(C(=O)NCc2cn(C)cn2)c1C)C1CCOCC1` [Cpd 25] yielded a half-maximal inhibitory concentration (IC50) of over 50 µM.

As to `CCN(c1cc(Cl)cc(C(=O)NCc2nccn2C)c1C)C1CCOCC1` [Cpd 23], the IC50 was over 50 µM.

In the case of `CCN(c1cc(Cl)cc(C(=O)NCc2cc(C)on2)c1C)C1CCOCC1` [Cpd 29], the half-inhibitory concentration (IC50) was over 50 µM.

Regarding `CCN(c1cc(Cl)cc(C(=O)NCCc2ncc[nH]2)c1C)[C@H]1CC[C@H](N(C)C)CC1` [Cpd 10], the IC50 was over 50 µM.

Compound `CCN(c1cc(Cl)cc(C(=O)NCc2cnn(C)c2C)c1C)C1CCOCC1` [Cpd 27] gave an IC50 of over 50 µM.

As to `CCN(c1cc(Cl)cc(C(=O)NCc2cn3ccsc3n2)c1C)C1CCOCC1` [Cpd 26], the IC50 is over 50 µM.

For `CCN(c1cc(Cl)cc(C(=O)NCc2cccn3ccnc23)c1C)[C@H]1CC[C@H](N(C)C)CC1` [Cpd 3], the concentration for half-maximal inhibition (IC50) was over 25 µM.

On to `CCN(c1cc(Cl)cc(C(=O)NCc2ccn(C)n2)c1C)C1CCOCC1` [Cpd 28], for which the half-inhibitory concentration (IC50) was over 50 µM.

Take `CCN(c1cc(Cl)cc(C(=O)NCc2c[nH]cn2)c1C)C1CCOCC1` [Cpd 30]: the IC50 is 44.1 µM. In other words, the double-digit micromolar range.

For the compound `CCN(c1cc(Cl)cc(C(=O)NCc2cc(C)nn2C)c1C)C1CCOCC1` [Cpd 31], the IC50 is over 50 µM.

`CCN(c1cc(Cl)cc(C(=O)NCc2c(C)cc(C)n3ccnc23)c1C)[C@H]1CC[C@H](N(C)C)CC1` [Cpd 1] displayed an IC50 of over 25 µM.
